Reference: US12234230B2, “Substituted benzyl-triazole compounds for Cbl-b inhibition, and further uses thereof” (Nurix Therapeutics, Inc., priority 2019, dated 2025)
Like-named read-outs stand apart in the source and are kept apart here.

Tests used:
Cbl-b = Cbl-b (Homo sapiens (Human), UniProt Q13191); test: Cbl-b displacement assay (Cbl-b inhibition assay), Biological Example 1; format: binding
Description: The ability of candidate compounds to displace a known inhibitor and thereby inhibit Cbl-b activity was measured by monitoring the interaction of Cbl-b with a fluorophore-labeled probe in the presence of the candidate compound.
Following the one hour incubation, the plates were read for TR-FRET signal at 520/620 nm using an Envision plate reader (Perkin Elmer).

[1] = test system: primary human total T-cells; test: Primary human total T-cell activation (IL-2 secretion, CD25 surface staining), Biological Example 2; conditions: fold change over baseline; for IL-2 secretion CD3/CD28 0.3 μM / CD25 staining CD3/CD28 0.3 μM: 0.3 μM inhibitor; for IL-2 secretion CD3/CD28 0.3 μM / IL-2 secretion CD3/CD28 1 μM / CD25 staining CD3/CD28 0.3 μM / CD25 staining CD3/CD28 1 μM: anti-CD3 and anti-CD28 co-stimulation; for IL-2 secretion CD3/CD28 1 μM / CD25 staining CD3 1 μM / IL-2 secretion CD3 1 μM / CD25 staining CD3/CD28 1 μM: 1 μM inhibitor; for CD25 staining CD3 1 μM / IL-2 secretion CD3 1 μM / CD25 staining CD3 3 μM / IL-2 secretion CD3 3 μM: anti-CD3 stimulation alone; for CD25 staining CD3 3 μM / IL-2 secretion CD3 3 μM: 3 μM inhibitor
Description: Peripheral blood mononuclear cells (PBMC) were obtained either: 1) by using Ficoll-Paque™ (GE Healthcare) for separation of peripheral blood hematopoietic cells from buffy coats of healthy human donors; or 2) directly from LeukoPak donations. […] The cells were rested overnight at 37° C. 5% CO2. The Cbl-inhibitor was added to 1×10^5 cells per well and the plate was incubated for one hour at 37° C. in 5% CO2 at the concentrations indicated (Table 3) with a final DMSO concentration of <0.1%. For samples stimulated with anti-CD3 antibody and anti-CD28 antibody (anti-CD3/anti-CD28), the Cbl-b inhibitor concentrations tested were 1 μM, and 0.3 μM. For samples stimulated with anti-CD3 antibody alone (anti-CD3), the Cbl-b inhibitor concentrations tested were 3 μM, and 1 μM. […] To prepare plates with plate bound anti-CD3 antibody (OKT3), 96-well round bottom tissue culture plates were coated with 100 μL of anti-CD3 antibody (OKT3) at 10 μg/mL for 4 hours at 37° C. 5% CO2 in phosphate buffered saline (PBS). […] Cells were stimulated for 48 hours prior to harvesting the cell free supernatant and staining the cell population for surface marker assessment by flow cytometry. Supernatants were analyzed for cytokine secretion, including IL-2 by ELISA (R&D Systems, Peprotech or Life Technologies) or Luminex multiplex kits (Procarta Life Technologies) following the manufacturer's protocol. Cells were stained with anti-CD25 antibody (BD Biosciences) to assess levels of surface marker of activation.
Readouts were reported as fold change over baseline. Baseline for this study was the measurement obtained from total human T-cells stimulated with anti-CD3 antibody and with soluble anti-CD28 antibody, wherein the cells were not incubated with a Cbl-b inhibitor (Table 3).

[2] = 0.125 nM Cbl-b final concentration (Low), read-out: Cbl-b activity IC50 (Low)

Cbl-b, sequence (Q13191 36-427): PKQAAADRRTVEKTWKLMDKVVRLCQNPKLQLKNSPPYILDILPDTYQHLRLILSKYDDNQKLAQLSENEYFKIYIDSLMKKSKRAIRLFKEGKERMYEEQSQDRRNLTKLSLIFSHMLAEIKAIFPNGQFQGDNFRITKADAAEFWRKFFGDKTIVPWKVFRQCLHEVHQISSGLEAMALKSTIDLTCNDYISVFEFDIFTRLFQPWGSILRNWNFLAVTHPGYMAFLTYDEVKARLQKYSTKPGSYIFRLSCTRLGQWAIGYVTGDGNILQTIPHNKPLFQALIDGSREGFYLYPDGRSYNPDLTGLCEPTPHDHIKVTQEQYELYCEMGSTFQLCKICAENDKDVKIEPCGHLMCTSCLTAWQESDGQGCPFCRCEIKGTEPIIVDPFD

Compound | IC50 (Cbl-b; [2]) | IL-2 secretion CD3/CD28 0.3 μM [1] | IL-2 secretion CD3/CD28 1 μM [1] | CD25 staining CD3 1 μM [1] | IL-2 secretion CD3 1 μM [1] | CD25 staining CD3 3 μM [1] | IL-2 secretion CD3 3 μM [1] | CD25 staining CD3/CD28 0.3 μM [1] | CD25 staining CD3/CD28 1 μM [1] | IC50 (Cbl-b; read-out: IC50 values in the Cbl-b inhibition assay of Biological Example 1)
C[C@@H]1CN(Cc2cc3c(c(C(F)(F)F)c2)CN(c2cccc(C4(c5nncn5C)CC5(CC5)C4)c2)C3=O)CCC1(F)F [Compound 41, 6-[[(3R)-4,4-difluoro-3-methyl-1-piperidyl]methyl]-2-[3-[5-(4-methyl-1,2,4-triazol-3-yl)spiro[2.3]hexan-5-yl]phenyl]-4-(trifluoromethyl)isoindolin-1-one] | < 5 nM | B (B indicates 20-35 fold) | A (A indicates >35 fold) | A (A indicates >2.5 fold) | A (A indicates >1.1 fold) | A (A indicates >2.5 fold) | A (A indicates >1.1 fold) | – | – | –
C[C@@H]1CN(Cc2cc3c(c(C4CC4)n2)CN(c2cccc([C@]4(c5nncn5C)C[C@@H](C)C4)c2)C3=O)CCO1 [Compound 29, 4-cyclopropyl-2-(3-((1s,3S)-3-methyl-1-(4-methyl-4H-1,2,4-triazol-3-yl)cyclobutyl)phenyl)-6-(((R)-2-methylmorpholino)methyl)-2,3-dihydro-1H-pyrrolo[3,4-c]pyridin-1-one] | 5 to 20 nM | C (C indicates <20 fold) | B (B indicates 20-35 fold) | A (A indicates >2.5 fold) | A (A indicates >1.1 fold) | B (B indicates 1.5-2.5 fold) | B (B indicates 0.70-1.1 fold) | B (B indicates 1.24-1.39 fold) | B (B indicates 1.24-1.39 fold) | –
C[C@H]1CCCN(Cc2cc3c(c(C(F)(F)F)c2)CN(c2cccc([C@]4(c5nncn5C)C[C@@H](CC#N)C4)c2)C3=O)C1 [Compound 48, 2-((1R,3s)-3-(4-methyl-4H-1,2,4-triazol-3-yl)-3-(3-(6-(((S)-3-methylpiperidin-1-yl)methyl)-1-oxo-4-(trifluoromethyl)isoindolin-2-yl)phenyl)cyclobutyl)acetonitrile] | < 5 nM | B (B indicates 20-35 fold) | A (A indicates >35 fold) | A (A indicates >2.5 fold) | A (A indicates >1.1 fold) | B (B indicates 1.5-2.5 fold) | B (B indicates 0.70-1.1 fold) | – | – | –
C[C@H]1CCCN(Cc2cc3c(c(C(F)(F)F)c2)CN(c2cccc([C@]4(c5nncn5C)C[C@@H](O)C4)c2)C3=O)C1 [Compound 32, 2-(3-((1s,3R)-3-hydroxy-1-(4-methyl-4H-1,2,4-triazol-3-yl)cyclobutyl)phenyl)-6-(((S)-3-methylpiperidin-1-yl)methyl)-4-(trifluoromethyl)isoindolin-1-one] | 5 to 20 nM | B (B indicates 20-35 fold) | A (A indicates >35 fold) | A (A indicates >2.5 fold) | A (A indicates >1.1 fold) | A (A indicates >2.5 fold) | A (A indicates >1.1 fold) | – | – | –
C[C@H]1CCCN(Cc2cc3c(c(C(F)(F)F)c2)CN(c2cccc([C@]4(c5nncn5C)C[C@H](C#N)C4)c2)C3=O)C1 [Compound 39, (1S,3r)-3-(4-methyl-4H-1,2,4-triazol-3-yl)-3-(3-(6-(((S)-3-methylpiperidin-1-yl)methyl)-1-oxo-4-(trifluoromethyl)isoindolin-2-yl)phenyl)cyclobutane-1-carbonitrile] | < 5 nM | A (A indicates >35 fold) | A (A indicates >35 fold) | A (A indicates >2.5 fold) | A (A indicates >1.1 fold) | A (A indicates >2.5 fold) | A (A indicates >1.1 fold) | B (B indicates 1.24-1.39 fold) | B (B indicates 1.24-1.39 fold) | –
CC[C@H]1CN(Cc2cc3c(c(C(F)(F)F)c2)CN(c2cccc([C@]4(c5nncn5C)C[C@@H](C)C4)c2)C3=O)CCO1 [Compound 27, 6-(((S)-2-ethylmorpholino)methyl)-2-(3-((1s,3R)-3-methyl-1-(4-methyl-4H-1,2,4-triazol-3-yl)cyclobutyl)phenyl)-4-(trifluoromethyl)isoindolin-1-one] | 5 to 20 nM | C (C indicates <20 fold) | B (B indicates 20-35 fold) | C (C indicates <1.5 fold) | C (C indicates <0.70 fold) | C (C indicates <1.5 fold) | C (C indicates <0.70 fold) | B (B indicates 1.24-1.39 fold) | – | –
CO[C@H]1C[C@](c2cccc(N3Cc4c(cc(CN5CCC(F)(F)[C@H](C)C5)cc4C(F)(F)F)C3=O)c2)(c2nncn2C)C1 [Compound 36, 6-(((R)-4,4-difluoro-3-methylpiperidin-1-yl)methyl)-2-(3-(trans-3-methoxy-1-(4-methyl-4H-1,2,4-triazol-3-yl)cyclobutyl)phenyl)-4-(trifluoromethyl)isoindolin-1-one] | < 5 nM | C (C indicates <20 fold) | C (C indicates <20 fold) | C (C indicates <1.5 fold) | C (C indicates <0.70 fold) | C (C indicates <1.5 fold) | C (C indicates <0.70 fold) | – | – | –
Cc1cc(C(=O)Nc2cccc([C@]3(c4nncn4C)C[C@H](C)C3)c2)nc(C2CC2)n1 [Compound 22, 2-cyclopropyl-6-methyl-N-{3-[(1s,3r)-3-methyl-1-(4-methyl-1,2,4-triazol-3-yl)cyclobutyl]phenyl}pyrimidine-4-carboxamide] | 20 to 100 nM | C (C indicates <20 fold) | C (C indicates <20 fold) | C (C indicates <1.5 fold) | C (C indicates <0.70 fold) | C (C indicates <1.5 fold) | C (C indicates <0.70 fold) | – | – | –
C[C@@H]1CN(Cc2cc3c(c(C(F)(F)F)c2)CN(c2cccc([C@H](c4nncn4C)C4CCC4)c2)C3=O)CCC1(F)F [Compound 1, 2-(3-((R)-cyclobutyl(4-methyl-4H-1,2,4-triazol-3-yl)methyl)phenyl)-6-(((R)-4,4-difluoro-3-methylpiperidin-1-yl)methyl)-4-(trifluoromethyl)isoindolin-1-one] | < 5 nM | B (B indicates 20-35 fold) | B (B indicates 20-35 fold) | A (A indicates >2.5 fold) | A (A indicates >1.1 fold) | A (A indicates >2.5 fold) | A (A indicates >1.1 fold) | B (B indicates 1.24-1.39 fold) | B (B indicates 1.24-1.39 fold) | ≤ 5 nM
C[C@@H]1CN(C(C)(C)c2cc3c(c(C(F)(F)F)c2)CN(c2cccc(C4(c5nncn5C)CC5(CC5)C4)c2)C3=O)CCO1 [Compound 45, (R)-2-(3-(5-(4-methyl-4H-1,2,4-triazol-3-yl)spiro[2.3]hexan-5-yl)phenyl)-6-(2-(2-methylmorpholino)propan-2-yl)-4-(trifluoromethyl)isoindolin-1-one] | < 5 nM | B (B indicates 20-35 fold) | B (B indicates 20-35 fold) | A (A indicates >2.5 fold) | A (A indicates >1.1 fold) | A (A indicates >2.5 fold) | A (A indicates >1.1 fold) | B (B indicates 1.24-1.39 fold) | – | –
C[C@@H]1CN(Cc2cc3c(c(C(F)(F)F)c2)CN(c2cccc([C@]4(c5nncn5C)C[C@H](C)C4)c2)C3=O)CCC1(F)F [Compound 20, 6-(((R)-4,4-difluoro-3-methylpiperidin-1-yl)methyl)-2-(3-((1r,3R)-3-methyl-1-(4-methyl-4H-1,2,4-triazol-3-yl)cyclobutyl)phenyl)-4-(trifluoromethyl)isoindolin-1-one] | 20 to 100 nM | C (C indicates <20 fold) | C (C indicates <20 fold) | A (A indicates >2.5 fold) | B (B indicates 0.70-1.1 fold) | A (A indicates >2.5 fold) | A (A indicates >1.1 fold) | B (B indicates 1.24-1.39 fold) | B (B indicates 1.24-1.39 fold) | –
C[C@H]1CCCN(Cc2cc3c(c(C4CC4)n2)CN(c2cccc([C@]4(c5nncn5C)C[C@@H](C)C4)c2)C3=O)C1 [Compound 25, 4-cyclopropyl-2-(3-((1s,3R)-3-methyl-1-(4-methyl-4H-1,2,4-triazol-3-yl)cyclobutyl)phenyl)-6-(((S)-3-methylpiperidin-1-yl)methyl)-2,3-dihydro-1H-pyrrolo[3,4-c]pyridin-1-one] | 5 to 20 nM | C (C indicates <20 fold) | C (C indicates <20 fold) | B (B indicates 1.5-2.5 fold) | B (B indicates 0.70-1.1 fold) | B (B indicates 1.5-2.5 fold) | B (B indicates 0.70-1.1 fold) | B (B indicates 1.24-1.39 fold) | B (B indicates 1.24-1.39 fold) | –
